In patent publication US9199885B2, “Utilization of iron salts to stabilize and/or disinfect biosolids” (The Administrators of the Tulane Educational Fund, priority 2013, dated 2015):

What was measured:
[1] = tested on: biomass; settings: endogenous respiration, no added oxygen or substrate; cited from earlier work
[2] = tested on: return activated sludge (RAS) seed microorganisms; assay: Aerobic respirometry: specific oxygen uptake rate (SOUR) of iron-dosed, heat-dried biosolids; settings: for time until SOUR reached below the stable criteria requirement: 1.5% ferrate as iron by TS
Procedure: Thickened sewage sludge was poured into ster[…] & Bird B-Ker polycarbonate jars with a sampling port for flash mixing and flocculation in amounts of 1 L to 2 L. The ferric chloride/ferrate dose was delivered by syringe to the jar test beakers. The ferric chloride dose was calculated by obtaining the total solids content of the sludge sample first and taking 2% of the result. The ferrate dose was calculated after computing the final synthesized concentration of ferrate in buffer solution. Both the ferrate and ferric chloride doses were based on mass rather than volume. The ferrate solution strength was calculated based on mass instead of volume to minimize errors in the dose calculations; these errors are associated with off-gases from the ferrate solution changing the volume of ferrate within the syringe. Of the six jars, one jar of raw sludge served as the control and five jars were used to test various dosages. The ferric chloride was added first while the sludge samples were mixed at a speed of 300 rpm; after thorough mixing (about 10 minutes), the ferrate was added and the mixture was mixed at 300 rpm for about 10 minutes until thoroughly mixed. Well-mixed sludge was then transferred into centrifuge tubes and centrifuged, and then the settled solids were collected and spread on a baking pan and heat dried for about 30 minutes. Batch respirometer tests were conducted by dosing microbial culture with an amount of organic chemical or wastewater followed by monitoring the reactions through measurement of oxygen uptake in aerobic tests or gas production in anoxic and methanogenic tests. Batch tests are transient, non-steady-state reactions in which both substrate and biomass concentrations change throughout the biodegradation reaction. The procedures generally involve the following steps. A sample of wastewater or solution of test chemicals is placed in each of a number of respirometer vessels. Nutrients and trace minerals are added in amounts sufficient to support biological growth and a buffer is added to maintain the pH within an acceptable range. A seed culture is added to provide microorganisms that can degrade the organic constituents in the test samples. A caustic scrubber is suspended within the headspace of the reaction vessel to absorb carbon dioxide (only in instruments using headspace oxygen transfer), and chemicals are added to inhibit nitrification in cases where only aerobic carbonaceous oxidation reactions are to be monitored. The reaction vessels are attached to a device suitable for measuring oxygen uptake or gas production, and oxygen uptake or gas production is measured over time periods ranging from a few minutes to 90 days, depending on the test objectives. The aerobic conditions of respirometry assessments were designed to simulate the scenario that the treated biosolids were fully seeded with an unlimited oxygen supply. The anaerobic conditions mimicked fully seeded biosolids without oxygen. The return activated sludge from the New Orleans' POTW was used as seed for its already acclimated microorganisms. For the same reasons, the effluent was selected as the dilution water to increased moisture content. After the heat drying process, the product was tested for total solids contents. […] The system was then sealed and set up in a 20° C. water bath for real time monitoring on oxygen uptake for 96 hours. pH and ORP values were assessed at the beginning and the end of the tests. The sludge was thickened to achieve a 5% solids content level. After the addition of ferric chloride, ferrate or both followed by centrifugation, the sludge cake was placed in an oven at 80° C. for 30 minutes to mimic the heat drying process. The dried sludge was then tested for stability by adding 98%-99% of moisture content. There were three exogenous variables: buffer, feed and seed. The buffer was 1.5M KH2PO4 at pH 7.0. […]

[3] = ORP of treated heat-dried biosolids; type: physicochemical; settings: post treatment
Procedure: After the heat drying process, the product was tested for total solids contents. Based on the results, a 2% solution of said product in effluent was made and poured into 600 mL narrow neck glass bottles, along with a seeding of 3000 mg/L for each bottle. The system was then sealed and set up in a 20° C. water bath for real time monitoring on oxygen uptake for 96 hours. pH and ORP values were assessed at the beginning and the end of the tests.

| Compound | stimulation of biomass during dosing [1] | stability of heat-dried biosolids ([2]; 1.4% to 1.5% ferric chloride, seeded) | SOUR ([2]; 1.4% to 1.5% ferric chloride, seeded, for 5 to 10 hours) [mg O2/h/g TS] | time heat-dried biosolids observed to be stable ([2]; dose larger than 2.3% ferric chloride, seeded) | stability of heat-dried biosolids ([2]; ferric chloride-treated, seed not added) | stability of heat-dried biosolids ([2]; with addition of seed, ferric chloride doses less than 2.3%) | ORP levels in the biosolids [3] | stabilization (SOUR) ([2]; 1.3% ferrate as the iron dose, buffer, seed and feed in respirometer) | time until SOUR reached below the stable criteria requirement ([2]; moisture content 98%) [h] | time until SOUR reached below the stable criteria requirement ([2]; moisture content 99%) [h] | stabilization (SOUR) ([2]; ferrate dosages 1.2% to 4.9%, not neutralized with buffer (pH higher than 10), acetate and seed added) |
| --- | --- | --- | --- | --- | --- | --- | --- | --- | --- | --- | --- |
| O=S(=O)([O-])[O-].[Fe+2] [ferrous sulphate] | did not stimulate the biomass |  |  |  |  |  |  |  |  |  |  |
| [Cl][Fe]([Cl])[Cl] [ferric chloride] | did not stimulate the biomass | not stable | > 1.5 | at least 2 days | stable | not stable | around 0.1 V |  |  |  |  |
| [O]=[Fe](=[O])([O-])[O-] [ferrate] |  |  |  |  |  |  | around 0.1 V | no stabilization | 5 | 9 | stable biosolids |
